These results are taken from patent publication EP0233461B2, “4,5,6-Substituted-2-pyrimidinamines” (AMERICAN CYANAMID COMPANY, priority 1986, dated 1987).

The test system of this test is human basophils. Nature of the test: Inhibition of histamine release from immunologically stimulated human basophils. It is filed as cell-based. As to conditions: Homo sapiens, concentration causing 50% inhibition of histamine release, by linear regression; active if IC50 ≦ 48 µM; read-out: IC50. The method in brief:
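Leukocytes from sedimented human blood, washed in Tris-A and resuspended in Tris-ACM, were challenged with anti-IgE or antigen, with or without compound, for 60 min at 37 °C. Released histamine was measured fluorometrically after OPT derivatization and expressed as percent of total (perchloric acid lysate), corrected for spontaneous release.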
As for `Cc1cccc(Nc2nccc(-c3ccco3)n2)c1` [4-(2-Furanyl)-N-(3-methylphenyl)-2-pyrimidinamine], the IC50 came out at 3500 nM.
For `COc1ccc(Nc2nccc(-c3ccncc3)n2)cc1` [N-(4-Methoxyphenyl)-4-(4-pyridinyl)-2-pyrimidinamine] the value was 1000 nM.
Take `COc1cccc(Nc2nccc(-c3ccncc3)n2)c1` [N-(3-Methoxyphenyl)-4-(4-pyridinyl)-2-pyrimidinamine]: the IC50 was determined as 400 nM.
For the molecule `c1ccc2c(Nc3nccc(-c4ccncc4)n3)cccc2c1` [N-1-Naphthalenyl-4-(4-pyridinyl)-2-pyrimidinamine], the IC50 was 31300 nM.
For `CCN(CC)CCOc1cccc(Nc2nccc(-c3cccnc3)n2)c1` [N-[3-[2-(Diethylamino)ethoxy]phenyl]-4-(3-pyridinyl)-2-pyrimidinamine] the value was 2800 nM; for `FC(F)(F)c1cc(Nc2nccc(-c3ccncc3)n2)ccc1-n1ccnc1` [N-[4-(1H-Imidazol-1-yl)-3-(trifluoromethyl)-phenyl]-4-(4-pyridinyl)-2-pyrimidinamine], 400 nM.

What is called IC50 is the concentration that inhibits the measured activity by half.
